According to patent US20250135042A1, “Perfluorocarbon-Containing Contrast Agent for Use in MRI Imaging of Body Cavities” (University of Pittsburgh - Of the Commonwealth System of …, priority 2023, published 2025):

How the values were obtained:
[1] = 1H relaxivity of serial two-fold dilutions in tubes, from T1 weighted images; type: physicochemical; settings: 7 Tesla, 37° C.
Experimental: FIGS. 2A and 2B: Graphical plots and T1 weighted images of individual tubes containing serial two-fold dilutions of Gadobutrol without ≥10% w/v PFC emulsion (FIG. 2A) or with ≥10% w/v PFC emulsion (FIG. 2B) display that ≥10% PFC emulsion diminishes the ^1H relaxivity of Gadobutrol from 3.95 L/mmol/s (FIG. 2A) to 2.05 L/mmol/s (FIG. 2B) at 7 Tesla scanner. T1 relaxation rate of water protons (R1=1/T1) was calculated from the slope of the line plotted by computing T1 relaxation time from T1 weighted images acquired at identical magnetic field strength of 7 Tesla at 37° C.
While gadolinium chelates are characterized by longitudinal and transverse relaxivity, denoted r1 and r2, respectively, (sensitivity to improve image contrast) gadolinium chelates are generally referred to as T1 agents owing to their larger effect on tissue T1 than on T2 for positive image contrast in T1-weighted images.

[2] = Stokes-Einstein radius; type: physicochemical

## O=C([O-])CN1CCN(CC(=O)[O-])CCN([C@H](CO)[C@H](O)CO)CCN(CC(=O)[O-])CC1.[Gd+3] (racemic) [Gadobutrol, gadobutrol]
[1]; with ≥10% w/v PFC emulsion
  1H relaxivity of Gadobutrol: 2.05 L/mmol/s
[1]; without ≥10% w/v PFC emulsion
  1H relaxivity of Gadobutrol: 3.95 L/mmol/s
[2]
  Stokes-Einstein radius (median for the emulsion particles): 0.4 nm
